According to patent US10738028B2, “Spiro three-membered ring, spiro five-membered ring peptide deformylase inhibitor and use thereof in antibacteria and anti-tumor” (priority 2016, dated 2020):

Legend:
Assay type in all cases: cell-based
[1] = system: Enterococcus faecium (EFM); assay: MIC, two-fold agar dilution (CLSI), clinical isolates; conditions: for Anti-bacterial activity (MIC), strain EFM 15-1: clinical isolate EFM 15-1; for Anti-bacterial activity (MIC), strain EFM 15-2: clinical isolate EFM 15-2; for Anti-bacterial activity (MIC), strain EFM 15-3: clinical isolate EFM 15-3; for Anti-bacterial activity (MIC), strain EFM 15-4: clinical isolate EFM 15-4; for Anti-bacterial activity (MIC), strain EFM 15-5: clinical isolate EFM 15-5; for Anti-bacterial activity (MIC), strain EFM 15-6: clinical isolate EFM 15-6
How it was run: (§1)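 CLSI two-fold agar dilution; MIC of test samples read per tested strain.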

[2] = system: methicillin-sensitive Staphylococcus epidermidis (MSSE); assay: as above; conditions: for Anti-bacterial activity (MIC), strain MSSE 15-3: clinical isolate MSSE 15-3; for Anti-bacterial activity (MIC), strain MSSE 15-4: clinical isolate MSSE 15-4; for Anti-bacterial activity (MIC), strain MSSE 15-5: clinical isolate MSSE 15-5; for Anti-bacterial activity (MIC), strain MSSE 15-6: clinical isolate MSSE 15-6
How it was run: as §1

[3] = system: methicillin-resistant Staphylococcus aureus (MRSA); assay: as above; conditions: for Anti-bacterial activity (MIC), strain MRSA 15-1: clinical isolate MRSA 15-1; for Anti-bacterial activity (MIC), strain MRSA 15-2: clinical isolate MRSA 15-2; for Anti-bacterial activity (MIC), strain MRSA 15-3: clinical isolate MRSA 15-3; for Anti-bacterial activity (MIC), strain MRSA 15-4: clinical isolate MRSA 15-4
How it was run: as §1

[4] = system: methicillin-sensitive Staphylococcus aureus (MSSA); assay: as above; conditions: for Anti-bacterial activity (MIC), strain MSSA 15-3: clinical isolate MSSA 15-3; for Anti-bacterial activity (MIC), strain MSSA 15-4: clinical isolate MSSA 15-4; for Anti-bacterial activity (MIC), strain MSSA 15-5: clinical isolate MSSA 15-5; for Anti-bacterial activity (MIC), strain MSSA 15-6: clinical isolate MSSA 15-6
How it was run: as §1

[5] = system: Escherichia coli (including ESBLs, non-ESBLs); assay: as above; conditions: for Anti-bacterial activity (MIC), strain ECO+ 15-1: clinical isolate ECO+ 15-1; for Anti-bacterial activity (MIC), strain ECO+ 15-2: clinical isolate ECO+ 15-2; for Anti-bacterial activity (MIC), strain ECO+ 15-3: clinical isolate ECO+ 15-3; for Anti-bacterial activity (MIC), strain ECO+ 15-4: clinical isolate ECO+ 15-4; for Anti-bacterial activity (MIC), strain ECO− 15-1: clinical isolate ECO− 15-1; for Anti-bacterial activity (MIC), strain ECO− 15-2: clinical isolate ECO− 15-2; for Anti-bacterial activity (MIC), strain ECO− 15-3: clinical isolate ECO− 15-3; for Anti-bacterial activity (MIC), strain ECO− 15-4: clinical isolate ECO− 15-4
How it was run: as §1

[6] = system: Enterococcus faecalis (EFA); assay: as above; conditions: for Anti-bacterial activity (MIC), strain EFA 15-1: clinical isolate EFA 15-1; for Anti-bacterial activity (MIC), strain EFA 15-2: clinical isolate EFA 15-2; for Anti-bacterial activity (MIC), strain EFA 15-3: clinical isolate EFA 15-3; for Anti-bacterial activity (MIC), strain EFA 15-4: clinical isolate EFA 15-4; for Anti-bacterial activity (MIC), strain EFA 15-5: clinical isolate EFA 15-5; for Anti-bacterial activity (MIC), strain EFA 15-6: clinical isolate EFA 15-6; for Anti-bacterial activity (MIC), strain EFA 15-9: clinical isolate EFA 15-9
How it was run: as §1

[7] = system: Streptococcus pneoumoniae (SPN); assay: as above; conditions: for Anti-bacterial activity (MIC), strain SPN 16-2: clinical isolate SPN 16-2; for Anti-bacterial activity (MIC), strain SPN 16-4: clinical isolate SPN 16-4
How it was run: as §1

[8] = system: Moraxella catarrhalis (BCA); assay: as above; conditions: for Anti-bacterial activity (MIC), strain BCA 14-1: clinical isolate BCA 14-1; for Anti-bacterial activity (MIC), strain BCA 14-4: clinical isolate BCA 14-4; for Anti-bacterial activity (MIC), strain BCA 14-5: clinical isolate BCA 14-5; for Anti-bacterial activity (MIC), strain BCA 14-6: clinical isolate BCA 14-6; for Anti-bacterial activity (MIC), strain BCA 14-7: clinical isolate BCA 14-7; for Anti-bacterial activity (MIC), strain BCA 14-8: clinical isolate BCA 14-8; for Anti-bacterial activity (MIC), strain BCA 14-10: clinical isolate BCA 14-10
How it was run: as §1

[9] = system: methicillin-resistant Staphylococcus epidermidis (MRSE); assay: as above; conditions: for Anti-bacterial activity (MIC), strain MRSE 15-1: clinical isolate MRSE 15-1; for Anti-bacterial activity (MIC), strain MRSE 15-2: clinical isolate MRSE 15-2; for Anti-bacterial activity (MIC), strain MRSE 15-3: clinical isolate MRSE 15-3; for Anti-bacterial activity (MIC), strain MRSE 15-7: clinical isolate MRSE 15-7
How it was run: as §1

[10] = system: HCT-116 colorectal cancer cell line; assay: CCK-8 proliferation inhibition; conditions: Homo sapiens, HCT-116, 72 h, concentration of 30 μM; 72 hours; CCK-8; read-out: HCT116 inhibition rate/%
How it was run: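 Growth inhibition is read by CCK-8 (1:10 dilution) after 72 h of compound exposure. HCT-116 cells grow in McCoy's 5A containing 10% newborn bovine serum at 2000 cells/well, with 1‰ DMSO as vehicle control.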

CCCC[C@H](CC(=O)NO)C(=O)N1CC2(CC2)C[C@H]1c1nc2ccccc2[nH]1 [Example 58, (R)-3-((S)-6-(1H-benzimidazol-2-yl)-5-azaspiro[2.4]heptane-5-formyl)-N-hydroxyheptanamide]
> 32 mg/L: Anti-bacterial activity (MIC), strain EFM 15-1 [1] | Anti-bacterial activity (MIC), strain EFM 15-2 [1] | Anti-bacterial activity (MIC), strain EFM 15-3 [1] | Anti-bacterial activity (MIC), strain MSSE 15-3 [2] | Anti-bacterial activity (MIC), strain MSSE 15-4 [2] | Anti-bacterial activity (MIC), strain MSSE 15-5 [2] | Anti-bacterial activity (MIC), strain MSSE 15-6 [2] | Anti-bacterial activity (MIC), strain MRSA 15-1 [3] | Anti-bacterial activity (MIC), strain MRSA 15-2 [3] | Anti-bacterial activity (MIC), strain MRSA 15-3 [3] | Anti-bacterial activity (MIC), strain MRSA 15-4 [3] | Anti-bacterial activity (MIC), strain MSSA 15-3 [4] | Anti-bacterial activity (MIC), strain MSSA 15-4 [4] | Anti-bacterial activity (MIC), strain MSSA 15-5 [4] | Anti-bacterial activity (MIC), strain MSSA 15-6 [4] | Anti-bacterial activity (MIC), strain ECO+ 15-1 [5] | Anti-bacterial activity (MIC), strain ECO+ 15-2 [5] | Anti-bacterial activity (MIC), strain ECO+ 15-3 [5] | Anti-bacterial activity (MIC), strain ECO+ 15-4 [5] | Anti-bacterial activity (MIC), strain ECO− 15-1 [5] | Anti-bacterial activity (MIC), strain ECO− 15-2 [5] | Anti-bacterial activity (MIC), strain ECO− 15-3 [5] | Anti-bacterial activity (MIC), strain ECO− 15-4 [5] | Anti-bacterial activity (MIC), strain EFA 15-1 [6] | Anti-bacterial activity (MIC), strain EFA 15-2 [6] | Anti-bacterial activity (MIC), strain EFA 15-3 [6] | Anti-bacterial activity (MIC), strain EFA 15-4 [6] | Anti-bacterial activity (MIC), strain EFA 15-5 [6] | Anti-bacterial activity (MIC), strain EFA 15-6 [6] | Anti-bacterial activity (MIC), strain EFA 15-9 [6] | Anti-bacterial activity (MIC), strain SPN 16-4 [7] | Anti-bacterial activity (MIC), strain BCA 14-1 [8] | Anti-bacterial activity (MIC), strain BCA 14-4 [8] | Anti-bacterial activity (MIC), strain BCA 14-6 [8] | Anti-bacterial activity (MIC), strain BCA 14-7 [8] | Anti-bacterial activity (MIC), strain BCA 14-8 [8] | Anti-bacterial activity (MIC), strain BCA 14-10 [8] | Anti-bacterial activity (MIC), strain MRSE 15-1 [9] | Anti-bacterial activity (MIC), strain MRSE 15-2 [9] | Anti-bacterial activity (MIC), strain MRSE 15-3 [9] | Anti-bacterial activity (MIC), strain MRSE 15-7 [9]
24%: inhibition at 30 µM [10]
8 mg/L: Anti-bacterial activity (MIC), strain EFM 15-4 [1] | Anti-bacterial activity (MIC), strain EFM 15-5 [1] | Anti-bacterial activity (MIC), strain EFM 15-6 [1] | Anti-bacterial activity (MIC), strain SPN 16-2 [7] | Anti-bacterial activity (MIC), strain BCA 14-5 [8]

CCCC[C@H](CC(=O)NO)C(=O)N1CC2(CC2)C[C@@H]1c1nc2ccccc2[nH]1 [Example 59, (R)-3-((R)-6-(1H-benzimidazol-2-yl)-5-azaspiro[2.4]heptane-5-carbonyl)-N-hydroxyheptanamide]
16 mg/L: Anti-bacterial activity (MIC), strain EFM 15-5 [1] | Anti-bacterial activity (MIC), strain EFM 15-6 [1] | Anti-bacterial activity (MIC), strain BCA 14-5 [8]
12%: inhibition at 30 µM [10]
8 mg/L: Anti-bacterial activity (MIC), strain SPN 16-2 [7] | Anti-bacterial activity (MIC), strain SPN 16-4 [7]
> 32 mg/L: Anti-bacterial activity (MIC), strain EFM 15-1 [1] | Anti-bacterial activity (MIC), strain EFM 15-2 [1] | Anti-bacterial activity (MIC), strain EFM 15-3 [1] | Anti-bacterial activity (MIC), strain EFM 15-4 [1] | Anti-bacterial activity (MIC), strain MSSE 15-3 [2] | Anti-bacterial activity (MIC), strain MSSE 15-4 [2] | Anti-bacterial activity (MIC), strain MSSE 15-5 [2] | Anti-bacterial activity (MIC), strain MSSE 15-6 [2] | Anti-bacterial activity (MIC), strain MRSA 15-1 [3] | Anti-bacterial activity (MIC), strain MRSA 15-2 [3] | Anti-bacterial activity (MIC), strain MRSA 15-3 [3] | Anti-bacterial activity (MIC), strain MRSA 15-4 [3] | Anti-bacterial activity (MIC), strain MSSA 15-3 [4] | Anti-bacterial activity (MIC), strain MSSA 15-4 [4] | Anti-bacterial activity (MIC), strain MSSA 15-5 [4] | Anti-bacterial activity (MIC), strain MSSA 15-6 [4] | Anti-bacterial activity (MIC), strain ECO+ 15-1 [5] | Anti-bacterial activity (MIC), strain ECO+ 15-2 [5] | Anti-bacterial activity (MIC), strain ECO+ 15-3 [5] | Anti-bacterial activity (MIC), strain ECO+ 15-4 [5] | Anti-bacterial activity (MIC), strain ECO− 15-1 [5] | Anti-bacterial activity (MIC), strain ECO− 15-2 [5] | Anti-bacterial activity (MIC), strain ECO− 15-3 [5] | Anti-bacterial activity (MIC), strain ECO− 15-4 [5] | Anti-bacterial activity (MIC), strain EFA 15-1 [6] | Anti-bacterial activity (MIC), strain EFA 15-2 [6] | Anti-bacterial activity (MIC), strain EFA 15-3 [6] | Anti-bacterial activity (MIC), strain EFA 15-4 [6] | Anti-bacterial activity (MIC), strain EFA 15-5 [6] | Anti-bacterial activity (MIC), strain EFA 15-6 [6] | Anti-bacterial activity (MIC), strain EFA 15-9 [6] | Anti-bacterial activity (MIC), strain BCA 14-1 [8] | Anti-bacterial activity (MIC), strain BCA 14-4 [8] | Anti-bacterial activity (MIC), strain BCA 14-6 [8] | Anti-bacterial activity (MIC), strain BCA 14-7 [8] | Anti-bacterial activity (MIC), strain BCA 14-8 [8] | Anti-bacterial activity (MIC), strain BCA 14-10 [8] | Anti-bacterial activity (MIC), strain MRSE 15-1 [9] | Anti-bacterial activity (MIC), strain MRSE 15-2 [9] | Anti-bacterial activity (MIC), strain MRSE 15-3 [9] | Anti-bacterial activity (MIC), strain MRSE 15-7 [9]
